# What was measured:
# AK4.4 tumors = experiment: Orthotopic AK4.4 PDAC model in obese FVB mice, metformin in drinking water; format: in vivo, mouse
# Description: Wild-type (WT) C57BL/6 and FVB male mice were originally obtained from The Jackson Laboratory (The Jackson Laboratory, Bar Harbor, Me.) and bred and maintained in our defined-flora animal facility. Mice were maintained on a 12-h light-dark cycle in a temperature-controlled barrier facility, with ad libitum access to food and acidified water. To generate obese/diabetic mouse models, mice (6-weeks old) were given a 60% fat diet (D12492, Research Diets, New Brunswick, N.J.) for 10 weeks as previously described (49-51). For tumor experiments, the PAN02 and AK4.4 syngeneic PDAC models were used in C57BL/6 and FVB immunocompetent mice, respectively. PAN02 cells (SMAD4-m174) (52) were obtained from ATCC. AK4.4 cells (KrasG12D and p53^+/−) were isolated from mice generating spontaneous pancreatic tumors (Pt∫1-Cre/LSL-Kras^G12D/p53^Loxi−) (53). Orthotopic pancreatic tumors were generated by implanting a small piece (1 mm^3) of viable tumor tissue (from a source tumor in a separate donor animal) into the pancreas of a 6-8- week-old male lean or obese FVB (AK4.4 model) or C57BL/6 (PAN02 model) mouse. Both tumor models used were authenticated by IDEXX Laboratories. (PAN02: IDEXX RADIL Case # 22366-2013. AK4.4: IDEXX RADIL Case # 27818-2014).
# At day 21, plasma and tumor samples were collected, and tumors were weighed and processed for further analysis.
# This can be translated to the human equivalent dose by using the Reagan-Shaw method (54). According to the formula for the human equivalent dose [(mg/kg)=animal dose (mg/kg)×animal (km)/human (km). Km for a 60 kg human adults equals 37 and for a 20 g mouse equals 3], the human equivalent of murine dose of 300 mg/kg is 1459 mg for an average sized 60 kg adult human. Therefore, the selected dose in the present study is within the safe therapeutic range recorded in humans. […] This was compatible with the therapeutic periods reported in previous studies (55, 56). […] The amount added to each animal cage was calculated based on the average daily water intake for that cage during a period of 2 weeks prior to treatment initiation, and adjusted every three days based on water consumption and body weight of the animals. […] For in vitro experiments, a range of concentration from 0.05 to 25 mM depending on the cell line used, as discussed below.
# Immediately following excision, tumor tissue was snap frozen and stored in liquid nitrogen. Total RNA was extracted and relative gene expression for macrophage M1/M2 markers was determined using a Sybr-green based standard protocol. In addition, total RNA was extracted and relative gene expression was determined using RT2 Profiler PCR Arrays system (Qiagen) on a Stratagene Mx3000P QPCR System using pre-made pathway-focused arrays (“Fibrosis”-Cat. Number: PAMM011Z; “Epithelial to Mesenchymal Transition (EMT)”-Cat. Number: PAMM090Z; “TGF-β signaling targets”-PAMM235Z; “Extracellular Matrix & Adhesion Molecules”-Cat. Number: PAMM013Z; and “Common cytokines ”-Cat. Number: PAMM021Z).
# Each tumor sample was homogenized directly in lysis buffer for protein extraction. 20 ug of denatured protein per sample was loaded on 7%, 10% and 12% SDS-polyacrylamide gels. Antibodies used: phospho-p38 MAPKT^180/Y182 and p38; phospho-JNK (SAPK/JNK)^Thr183/Tyr185 and JNK; phospho-AKT^Ser473 and AKT, phospho-ERK(p44/42 MAPK)^T202/Y204 and ERK; phospho-NF-κB^Ser536 and NK-κB; p65^Ser536; phospho-Smad2^Ser465/467 and Smad2; phospho-IGF-I Receptor β^Tyr1135 and IGF; Phospho-IRS-1^Ser612 and IRS; IR; phpspho-stat3^Tyr705 and stat3; Phospho-AMPKα^Thr172 and Ampkα; phospho-Ampkβ^Ser108 and Ampk; phospho-ACC^Ser79 and ACC; Phospho-PDGF Receptor β^Tyr751 and PDGF Receptor β and snail, c-cadherin and vimentin, TGF-β, β-catenin, twist, LC3B. […]
# human pancreatic cancers = experiment: HA and collagen-I staining of human PDAC surgical samples, patients with or without metformin; format: in vivo
# Description: Human samples of pancreatic cancer were obtained from the Massachusetts General Hospital tissue repository. Written informed consent from the donor or the next of kin was obtained for the use of these samples for research purposes. Tumors selected received no prior chemotherapy or radiation therapy before the surgical specimen was collected at the time of tumor resection. A total of 28 samples were randomly selected from this subset of samples. Body mass index was obtained for the respective sample. […] Paraffin sections were stained for collagen-I and HA as described below. Images were acquired using confocal microscopy and quantified using Matlab. Data were analyzed anonymously.
# For analysis of frozen sections of mouse tumor tissues, the tumors were excised and frozen in optimal cutting temperature compound (Tissue-Tek). Transverse tumor sections, 10 μm thick, were immunostained with specific antibodies. To obtain mosaic images of tumor sections, an Olympus FV1000 confocal laser-scanning microscope was used. A 10× air objective acquired 1260-μm square tiles, and an automated stage scanned throughout the entire cross-section of tumor tissue. The imaged tiles were stitched into a final mosaic image using Olympus software. Antigen expression was quantified by measuring the area occupied by the stain of interest normalized by the area of DAPI-stained nuclei (i.e., unit less), and analyzed using a custom algorithm in MATLAB (The MathWorks). Identical settings and thresholds for analysis were used for all tumors. Antibodies used for immunofluorescence were the following: Collagen-I [LF-68 antibody, 1:50 dilution, provided by Dr Larry Fisher (NIDCR)]; Hyluronan (biotinylated hyaluronan proteoglycan fragment, 385911, Calbiochem, 1:200 dilution); αSMA (C6198 antibody, Sigma, 1:500 dilution); and F4/80 (MCA497A488 antibody, ABDserotec, 1:200 dilution). Cy3-, Cy5- or FITC-conjugated secondary antibodies were used for the detection of signals by confocal microscopy. Slides were counterstained with DAPI for nuclear staining.
# macrophage viability = experiment: MTT viability assay on macrophages; format: cell-based, mouse; settings: 48 h
# human PSC viability = experiment: MTT viability assay on PSCs; format: cell-based
# [1] = obese FVB mice, metformin 300 mg/Kg
# [2] = obese FVB mice, metformin 300 mg/Kg in drinking water
# [3] = obese FVB mice, metformin 300 mg/Kg in drinking water, day 7 to 21
smiles,measurement,setting,value
"CN(C)C(=N)N=C(N)N [metformin, 3-(diaminomethylidene)-1,1-dimethylguanidine]",expression of genes involved in ECM remodeling (including MMPs) and EMT,"AK4.4 tumors; PCR array, pooled samples",reduced the expression
same,"E-cadherin, protein expression",AK4.4 tumors; Western blot,increased
same,"EMT marker vimentin, protein expression",AK4.4 tumors; Western blot,decreased
same,activation of metabolic pathways in tumors,AK4.4 tumors; Western blot,did not affect the activation of metabolic pathways
same,expression of the autophagy marker L3CB,AK4.4 tumors; Western blot,unchanged
same,reduction of metalloproteinase 9 (MMP9) protein,"AK4.4 tumors; Western blot, metformin 300 mg/Kg",70%
same,MMP activity in tumors,AK4.4 tumors; compared to control mice,decreased
same,TAM levels lower with metformin treatment (F4/80),AK4.4 tumors; [1],60%
same,activation of STAT3 in whole tumors,AK4.4 tumors; [1],decreased activation of STAT3
same,expression of IL-1β and CXCL-1 in tumors (multiplex protein array),AK4.4 tumors; [1],reduced the expression of IL-1β and CXCL-1
same,decrease of percentage of activated (αSMA) PSCs that co-express HA,AK4.4 tumors; [2],58%
same,decrease of percentage of activated (αSMA) PSCs that co-express collagen-I,AK4.4 tumors; [2],38%
same,expression of AT1 in tumors (Western blot),AK4.4 tumors; [2],reduce the expression of AT1
same,reduced expression of HA,AK4.4 tumors; [3],64%
same,reduced expression of collagen-I,AK4.4 tumors; [3],35%
same,body weight,AK4.4 tumors; tumor-bearing mice,no change in body weight
same,collagen-I expression,human pancreatic cancers; either body weight group,no impact
same,levels of HA lower than in patients not taking metformin,"human pancreatic cancers; overweight or obese patients, chemo/radiotherapy naive PDAC surgical samples",30%
same,HA levels,human pancreatic cancers; patients of normal weight,no difference
same,doses at which metformin reduces macrophage viability,macrophage viability,> 0.2 mM
same,doses at which metformin reduces macrophage viability,macrophage viability; listed as Metformin,≥ 0.4 mM
same,doses at which metformin significantly reduces PSC viability,"human PSC viability; 48 h, MTT",> 7.5 mM
same,viability of PSCs,human PSC viability; metformin 1 mM,does not substantially affect the viability

# — patent US20180064662A1 (THE GENERAL HOSPITAL CORPORATION, priority 2015, published 2018)
